Assay results published in the supplement of paper PMC10307832.

Legend:
Test in all cases: relative viability (nuclei count vs DMSO), 5 days (fraction); higher = more cells survive
[1] = compound: C[C@@]1(C(=O)Nc2ccc(F)nc2)CCCN1c1nc(Nc2cc(C3CC3)n[nH]2)c2cccn2n1 + C[C@]1(O)C[C@@H](c2nc(-c3ccc4ccc(-c5ccccc5)nc4c3)c3c(N)nccn32)C1 [Linsitinib] (partner 1 µM)
In short: (§1)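 For relative viability, nuclei counts in treated wells were divided by those in vehicle wells. Lung cancer cell lines had been pin-tool dosed in 1536-well plates the day after seeding and cultured for 5 days, then fixed and stained in one step (final 0.05% Triton X-100, 1% formaldehyde, 1 ug/ml Hoechst) and imaged at 4×. Doses were one drug alone or a fixed anchor-drug dose plus five library-drug doses (not always all listed) in √10 steps, and values are duplicate-plate medians.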

[2] = compound: C[C@@]1(C(=O)Nc2ccc(F)nc2)CCCN1c1nc(Nc2cc(C3CC3)n[nH]2)c2cccn2n1 + CC1(C)CCC(c2ccc(Cl)cc2)=C(CN2CCN(c3ccc(C(=O)NS(=O)(=O)c4ccc(N[C@H](CCN5CCOCC5)CSc5ccccc5)c(S(=O)(=O)C(F)(F)F)c4)cc3)CC2)C1 [Navitoclax] (partner 0.5 µM)
In short: as §1

Motesanib + Tozasertib = compound: CC1(C)CNc2cc(NC(=O)c3cccnc3NCc3ccncc3)ccc21 [Motesanib] + Cc1cc(Nc2cc(N3CCN(C)CC3)nc(Sc3ccc(NC(=O)C4CC4)cc3)n2)n[nH]1 [Tozasertib] (partner 0.1 µM)
In short: as §1

[3] = compound: C[C@@]1(C(=O)Nc2ccc(F)nc2)CCCN1c1nc(Nc2cc(C3CC3)n[nH]2)c2cccn2n1 + CC(=O)c1c(C)c2cnc(Nc3ccc(N4CCNCC4)cn3)nc2n(C2CCCC2)c1=O [Palbociclib] (partner 0.5 µM)
In short: as §1

| Cell Line | relative viability ([1]; first compound 0.04 µM) | relative viability ([1]; first compound 0.1265 µM) | relative viability ([1]; first compound 0.4 µM) | relative viability ([1]; first compound 1.265 µM) | relative viability ([2]; first compound 0.04 µM) | relative viability ([2]; first compound 0.1265 µM) | relative viability ([2]; first compound 0.4 µM) | relative viability ([2]; first compound 1.265 µM) | relative viability (Motesanib + Tozasertib; first compound 0.01 µM) | relative viability (Motesanib + Tozasertib; first compound 0.03162 µM) | relative viability (Motesanib + Tozasertib; first compound 0.1 µM) | relative viability (Motesanib + Tozasertib; first compound 0.3162 µM) | relative viability (Motesanib + Tozasertib; first compound 1 µM) | relative viability ([3]; first compound 0.04 µM) | relative viability ([3]; first compound 0.1265 µM) | relative viability ([3]; first compound 0.4 µM) | relative viability ([3]; first compound 1.265 µM) |
| --- | --- | --- | --- | --- | --- | --- | --- | --- | --- | --- | --- | --- | --- | --- | --- | --- | --- |
| HCC-78 | 0.541 | 0.332 | 0.313 | 0.259 | 0.7 | 0.505 | 0.308 | 0.268 | 0.486 | 0.373 | 0.476 | 0.355 | 0.403 | 0.446 | 0.377 | 0.464 | 0.363 |
| IA-LM | 0.602 | 0.718 | 0.459 | 0.452 | 0.983 | 0.904 | 0.746 | 0.593 | – | – | – | – | – | – | – | – | – |
| NCI-H322M | 0.968 | 0.83 | 0.865 | 0.96 | 1.27 | 1 | 1.07 | 1.19 | 0.494 | 0.442 | 0.502 | 0.485 | 0.447 | 0.393 | 0.362 | 0.374 | 0.45 |
| NCI-H3122 | 1.04 | 1.1 | 1.01 | 1.06 | 1.05 | 1.06 | 1.06 | 1.02 | 0.301 | 0.369 | 0.409 | 0.475 | 0.452 | 0.158 | 0.183 | 0.171 | 0.185 |
| COR-L23 | 0.818 | 0.855 | 0.768 | 0.705 | 1.02 | 1.06 | 0.821 | 0.681 | 0.238 | 0.141 | 0.456 | 0.193 | 0.191 | 0.242 | 0.308 | 0.197 | 0.173 |
| NCI-H2087 | 0.933 | 0.935 | 0.962 | 0.932 | 0.882 | 0.969 | 0.854 | 0.931 | 0.208 | 0.204 | 0.261 | 0.208 | 0.258 | 0.218 | 0.188 | 0.177 | 0.181 |
| LC-2-ad | 0.897 | 0.865 | 0.788 | 0.576 | 0.379 | 0.373 | 0.296 | 0.143 | 0.447 | 0.362 | 0.439 | 0.476 | 0.45 | 0.421 | 0.396 | 0.384 | 0.347 |
| NCI-H1915 | 1.08 | 1.08 | 1.08 | 1.16 | 0.774 | 0.767 | 0.836 | 0.779 | 0.401 | 0.408 | 0.478 | 0.456 | 0.434 | 0.534 | 0.507 | 0.52 | 0.551 |
| NCI-H650 | 1.19 | 0.706 | 0.804 | 0.721 | – | – | – | – | 0.749 | – | 0.709 | 0.707 | 0.701 | 0.305 | 0.211 | 0.263 | 0.256 |
| NCI-H1792 | 0.654 | 0.596 | 0.503 | 0.713 | 0.422 | 0.36 | 0.464 | 0.393 | – | – | – | – | – | 0.417 | 0.742 | 0.268 | 0.393 |
| ChaGo-K-1 | – | – | – | – | 0.917 | 0.616 | 1.06 | 0.673 | 0.236 | 0.237 | 0.219 | 0.252 | 0.22 | 0.972 | 0.828 | 0.86 | 0.93 |
| NCI-H2342 | – | – | – | – | – | – | – | – | 0.493 | 0.496 | 0.438 | 0.562 | 0.583 | 0.505 | 0.598 | 0.47 | 0.48 |
| NCI-H1299 | 0.988 | 1.04 | 1 | 0.988 | 1.08 | 0.976 | 1.04 | 1.02 | – | – | – | – | – | – | – | – | – |
| NCI-H1650 | – | – | – | – | 0.955 | 1.14 | 0.955 | 1.08 | 0.467 | 0.381 | 0.438 | 0.491 | 0.439 | 0.324 | 0.36 | 0.328 | 0.314 |
| SW 900 | – | – | – | – | – | – | – | – | 0.599 | 0.524 | 0.66 | 0.51 | 0.638 | 0.614 | 0.497 | 0.588 | 0.547 |
| NCI-H596 | 0.954 | 1.02 | 0.939 | 1.18 | 1.01 | 0.809 | 0.921 | 1.09 | 0.917 | 1.27 | 1.04 | 0.843 | 1.01 | – | – | – | – |
| NCI-H1648 | – | – | – | – | – | – | – | – | 0.307 | 0.367 | 0.281 | 0.528 | 0.345 | 0.257 | 0.246 | 0.269 | 0.259 |
| NCI-H522 | – | – | – | – | – | – | – | – | 0.629 | 0.546 | 0.611 | 0.566 | 0.595 | 0.935 | 0.874 | 0.779 | 0.889 |
| A549 | 0.681 | 0.571 | 0.401 | 0.79 | 0.95 | 0.902 | 0.742 | 0.688 | – | – | – | – | – | – | – | – | – |
| NCI-H2170 | – | – | – | – | 0.514 | 0.652 | 0.518 | 0.652 | 0.64 | 0.679 | 0.709 | 0.832 | 0.659 | 0.362 | 0.396 | 0.369 | 0.371 |
| NCI-H661 | 0.63 | 0.809 | 0.571 | 0.545 | – | – | – | – | 0.372 | 0.357 | 0.367 | 0.361 | 0.351 | 0.388 | 0.427 | 0.412 | 0.386 |
| NCI-H1563 | 1.11 | 1.07 | 1.06 | 1.16 | – | – | – | – | – | – | – | – | – | – | – | – | – |
| ABC-1 | 1.05 | 0.711 | 0.619 | 0.777 | – | – | – | – | 0.174 | 0.188 | 0.226 | 0.197 | 0.149 | 0.647 | 0.42 | 0.437 | 0.477 |
| LCLC-103H | 1.23 | 1.01 | 1.01 | 1.18 | – | – | – | – | 0.489 | 0.341 | 0.47 | 0.442 | 0.551 | 0.471 | 0.452 | 0.48 | 0.465 |
